Literature values as cited in US6258550A, “Polypeptides that include conformation-constraining groups which flank a protein-protein interaction site” (Virginia Commonwealth University, priority 1999, dated 2001).
Where a SMILES comes first, the peptide text is derived from it.

Test system: receptors of sweet tasting papillae
Details: comparison sweetener

For `COC(=O)[C@H](Cc1ccccc1)NC(=O)[C@@H](N)CC(=O)O` [aspartame] (H-Asp-Phe-OMe), the “Sweetness relative to sugar” value is listed as 160 times sweeter than sugar.
